Reference: patent US20040006127A1, “Activation of the cystic fibrosis transmembrane conductance regulator chloride channel” (priority 2000, published 2004)
Entries after “also recorded” stand apart in the source; their conditions may differ.

Assays:
wild-type human CFTR [1] = biological target: T1, wild-type human CFTR (Homo sapiens, UniProt P13569); test: CFTR Cl- currents in excised inside-out membrane patches from C127 cells (time course, I-V studies); assay type: biochemical; conditions: for effect on channel activity at positive voltages: phloxine B 40 μM; for concentration that maximally stimulated channel activity: excised membrane patches
T1 construct: expressed in transfected cells
T1 sequence (P13569 whole entry): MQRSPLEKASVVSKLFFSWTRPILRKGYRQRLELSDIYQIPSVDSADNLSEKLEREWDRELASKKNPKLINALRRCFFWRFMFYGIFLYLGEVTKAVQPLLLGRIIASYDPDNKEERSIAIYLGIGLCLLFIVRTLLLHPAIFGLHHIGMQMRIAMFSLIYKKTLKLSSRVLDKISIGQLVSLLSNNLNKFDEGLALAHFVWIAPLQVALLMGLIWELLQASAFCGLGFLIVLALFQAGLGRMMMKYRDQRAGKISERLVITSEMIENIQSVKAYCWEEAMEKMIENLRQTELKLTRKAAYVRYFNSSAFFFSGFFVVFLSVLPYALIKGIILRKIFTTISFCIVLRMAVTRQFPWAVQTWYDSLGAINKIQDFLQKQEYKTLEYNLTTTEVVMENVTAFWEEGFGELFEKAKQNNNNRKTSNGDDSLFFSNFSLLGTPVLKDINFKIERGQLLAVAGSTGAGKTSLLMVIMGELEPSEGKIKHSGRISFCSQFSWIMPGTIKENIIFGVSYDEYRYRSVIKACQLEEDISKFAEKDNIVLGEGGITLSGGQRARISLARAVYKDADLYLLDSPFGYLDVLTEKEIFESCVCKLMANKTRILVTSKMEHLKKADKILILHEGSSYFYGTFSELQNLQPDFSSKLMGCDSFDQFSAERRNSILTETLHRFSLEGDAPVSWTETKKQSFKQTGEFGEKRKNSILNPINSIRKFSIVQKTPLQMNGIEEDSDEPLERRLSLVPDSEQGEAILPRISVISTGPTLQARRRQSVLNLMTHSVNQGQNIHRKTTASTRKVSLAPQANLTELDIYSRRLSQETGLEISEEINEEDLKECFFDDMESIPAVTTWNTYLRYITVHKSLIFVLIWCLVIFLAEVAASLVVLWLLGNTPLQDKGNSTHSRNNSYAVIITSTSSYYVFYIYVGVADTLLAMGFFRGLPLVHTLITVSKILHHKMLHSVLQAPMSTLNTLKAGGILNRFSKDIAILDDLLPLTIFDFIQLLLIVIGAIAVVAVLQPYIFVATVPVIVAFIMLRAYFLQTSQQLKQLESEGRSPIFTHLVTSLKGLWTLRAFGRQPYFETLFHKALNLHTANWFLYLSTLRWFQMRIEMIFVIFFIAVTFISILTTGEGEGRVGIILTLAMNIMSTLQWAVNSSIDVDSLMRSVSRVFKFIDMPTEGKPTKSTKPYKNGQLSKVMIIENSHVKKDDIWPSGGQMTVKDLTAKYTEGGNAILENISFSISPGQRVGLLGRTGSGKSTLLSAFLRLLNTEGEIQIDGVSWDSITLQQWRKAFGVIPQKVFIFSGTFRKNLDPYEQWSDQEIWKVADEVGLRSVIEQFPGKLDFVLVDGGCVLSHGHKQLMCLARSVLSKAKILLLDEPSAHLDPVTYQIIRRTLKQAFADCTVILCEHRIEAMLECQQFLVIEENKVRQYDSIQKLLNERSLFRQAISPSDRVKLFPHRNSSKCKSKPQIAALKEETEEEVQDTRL
Experimental: For electrophysiological experiments, we used mouse mammary epithelial cells (C127 cells) stably expressing wild-type human CFTR or ΔF508, the most common CF-associated mutation (11). C127 cells expressing wild-type CFTR were cultured as previously described (12). C127 cells expressing ΔF508 were cultured at 28° C., to overcome the processing defect of ΔF508 and promote bs delivery to the cell membrane (13). Cells were seeded onto glass coverslips and used within either 48 h (wild-type CFTR) or 1 week (ΔF508).
CFTR Cl^− channels were recorded in excised inside-out membrane patches using an Axopatch 200A patch-clamp amplifier (Axon Instruments Inc., Foster City, USA) and pCLAMP data acquisition and analysis software (version 6.03, Axon Instruments Inc.) as previously described (12,14). The established sign convention was used throughout; currents produced by positive charge moving from intra- to extracellular solutions (anions moving in the opposite direction) are shown as positive currents.
The pipette (extracellular) solution contained (in mM): 140 N-methyl-D-glucamine (NMDG), 140 aspartic acid, 5 CaCl2, 2 MgSO4, and 10 N-tris[hydroxymethyl]methyl-2-aminoethanesulphonic acid (Tes), pH 7.3 with Tris ([Cl^−], 10 mM). The bath (intracellular) solution contained (in mM): 140 NMDG, 3 MgCl2, 1 ethylene glycol-bis(β-aminoethylether)-N,N,N′,N′-tetraacetic acid caesium salt (CsEGTA), and 10 Tes, pH 7.3 with HCl, ([Cl^−], 147 mM; [Ca^2+]free, <10^−8 M). All experiments were conducted at 37° C.
After excision of membrane patches from C127 cells. CFTR Cl^− channels were activated by the addition of the catalytic subunit of protein kinase A (PKA; 75 nM) and ATP (1.0 mM) to the intracellular solution within 5 min of patch excision. […] PKA was maintained in the intracellular solution for the duration of experiments. Voltage was −50 mV. […] The number of channels per patch was determined from the maximum number of simultaneous channel openings observed during the course of an experiment, as previously described (12). […] To investigate whether modulation of CFTR by fluorescein derivatives was voltage dependent, we used a voltage ramp protocol. Macroscopic current-voltage (I-V) relationships were obtained. In the absence and presence of fluorescein derivatives by averaging currents generated by 15-30 ramps of voltage, each of 2 s duration; holding voltage was −50 mV. Basal currents recorded in the absence of PKA and ATP were subtracted from those recorded in the absence and presence of fluorescein derivatives to determine the effect of fluorescein derivatives on CFTR Cl^− currents,
CFTR Cl^− currents were initially recorded on digital audiotape using a digital tape recorder (Biologic Scientific Instruments, model DTR-1204; lntracel Ltd, Royston, UK) at a bandwidth of 10 kHz. On playback, records were filtered with an eight-pole Bessel filter (Frequency Devices, model 902LPF2: Scensys Ltd, Aylesbury, UK) at a corner frequency of 500 Hz and acquired using a Digidata 1200 interface (Axon Instruments Inc.) and pCLAMP at sampling rates of either 2.5 kHz (time course studies) or 5.0 kHz (single-channel studies).
In time course studies, each point is the average current for a 4 s period with data points collected continuously, no data were collected while solutions were changed. Average current (I) for a specific intervention was determined as the average of all the data points collected during the intervention. The relationship between drug concentration and CFTR inhibition was fitted to the Hill equation:
IDrug/IControl=1/{1+([Drug]/Ki)^n}, (1)
where [Drug] is the concentration of drug, IDrug/IControl is the fractional current at the indicated drug concentration relative to that in the same solution in the absence of added drug, Ki is the drug concentration causing half-maximal inhibition, and n is the slope factor (Hill coefficient). Mean data were fitted to a linear form of equation (1) using linear least-squares regression to yield Ki and n values.

KATP currents = biological target: T2, KATP currents (Homo sapiens, UniProt Q09428+Q14654); conditions: added to the extracellular solution; de Weille et al. (10); cited from earlier work
T2 construct: host or cells: pancreatic β-cells

wild-type human CFTR [2] = biological target: T1, wild-type human CFTR; test: Single-channel recording of CFTR Cl- channels in excised inside-out membrane patches from C127 cells; assay type: biochemical
[3] = biological target: T3, endogenous CFTR Cl- channels in Type I MDCK cells (Canis lupus familiaris, UniProt Q5U820); test: cAMP-stimulated iodide efflux from Type I MDCK cells; assay type: cell-based, canine
T3 construct: Type I MDCK cells are kidney epithelial cells that endogenously express the CFTR Cl^− channel; endogenous in cells; host or cells: Type I MDCK cells
T3 sequence (Q5U820 whole entry): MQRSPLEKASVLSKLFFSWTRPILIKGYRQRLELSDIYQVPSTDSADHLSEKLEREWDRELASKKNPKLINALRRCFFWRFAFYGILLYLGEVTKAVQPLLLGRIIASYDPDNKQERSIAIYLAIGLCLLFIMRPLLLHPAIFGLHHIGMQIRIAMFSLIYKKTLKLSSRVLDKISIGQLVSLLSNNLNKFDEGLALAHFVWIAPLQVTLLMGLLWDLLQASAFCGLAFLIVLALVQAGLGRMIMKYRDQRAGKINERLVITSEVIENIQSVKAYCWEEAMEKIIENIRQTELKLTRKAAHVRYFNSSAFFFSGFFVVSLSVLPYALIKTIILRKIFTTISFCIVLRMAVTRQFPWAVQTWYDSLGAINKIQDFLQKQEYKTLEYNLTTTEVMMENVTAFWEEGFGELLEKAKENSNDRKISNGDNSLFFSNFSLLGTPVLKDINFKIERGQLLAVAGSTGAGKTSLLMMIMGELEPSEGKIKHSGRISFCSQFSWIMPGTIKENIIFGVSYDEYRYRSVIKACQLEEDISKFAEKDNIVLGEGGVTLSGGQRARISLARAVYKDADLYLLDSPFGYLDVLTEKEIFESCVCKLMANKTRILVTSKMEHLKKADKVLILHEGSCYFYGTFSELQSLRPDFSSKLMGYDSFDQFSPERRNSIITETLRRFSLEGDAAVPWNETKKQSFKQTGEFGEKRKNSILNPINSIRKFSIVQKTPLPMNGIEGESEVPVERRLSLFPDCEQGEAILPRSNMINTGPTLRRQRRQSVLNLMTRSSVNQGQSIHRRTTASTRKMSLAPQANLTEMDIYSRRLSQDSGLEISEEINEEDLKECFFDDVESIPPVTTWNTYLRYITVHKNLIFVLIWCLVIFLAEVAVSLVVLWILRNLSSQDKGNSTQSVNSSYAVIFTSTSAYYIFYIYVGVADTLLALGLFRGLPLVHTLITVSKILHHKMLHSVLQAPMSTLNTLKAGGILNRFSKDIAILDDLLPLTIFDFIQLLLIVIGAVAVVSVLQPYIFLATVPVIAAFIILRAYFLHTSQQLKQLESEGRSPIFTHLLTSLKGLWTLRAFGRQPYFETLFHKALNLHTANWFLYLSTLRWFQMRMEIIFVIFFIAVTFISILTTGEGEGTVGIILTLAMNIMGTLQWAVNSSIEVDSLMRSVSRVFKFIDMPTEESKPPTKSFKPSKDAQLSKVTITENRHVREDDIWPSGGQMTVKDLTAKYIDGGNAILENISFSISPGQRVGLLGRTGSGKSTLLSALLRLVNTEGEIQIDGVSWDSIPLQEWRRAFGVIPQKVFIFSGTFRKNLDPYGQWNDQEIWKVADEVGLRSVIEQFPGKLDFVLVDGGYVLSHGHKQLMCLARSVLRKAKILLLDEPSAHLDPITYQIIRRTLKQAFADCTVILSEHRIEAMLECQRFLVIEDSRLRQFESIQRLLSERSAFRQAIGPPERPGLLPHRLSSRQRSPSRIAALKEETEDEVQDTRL
Experimental: For iodide efflux experiments, we used Type I Mardin-Darby canine kidney (MDCK) cells. MDCK cells were cultured in MDCK media (a 1:1 mixture of Dulbecco's Modified Eagle Medium (DMEM) and Ham's F-12 nutrient medium supplemented with 10% fetal bovine serum, 100 U ml^1 penicillin, and […] ml^−streptomycin; all from Life Technologies Ltd, Paisley, UK) at 37° C. in a humidified atmosphere of 5% CO2. Cells were seeded onto 60 mm plastic culture dishes and used 72-96 h later.
Type I MDCK cells (≧90% confluent) were incubated for 1 h in a loading buffer containing (mM): 136 Nal, 3 KNO3, 2 Ca(NO3)2, 11 glucose, and 20 Hepes, adjusted to pH 7.4 with NaOH. […] The efflux buffer was changed at 1 min intervals over the duration of the experiment, which typically lasted 18 min. Four minutes after anion substitution, cells were exposed to agonists for 4 min. The amount of iodide in each 2.5 ml sample of efflux buffer was determined using an iodide-selective electrode (Russell pH Ltd. Auchtermuchty, UK). Cells were loaded and experiments performed at room temperature (23° C.).
Type I MDCK cells are kidney epithelial cells that endogenously express the CFTR Cl^− channel (20).
Nitrate was substituted for iodide in the bathing medium at t=−4 min and iodide efflux was monitored at 1 min intervals, for the duration of the experiment.

ΔF508 CFTR = biological target: T4, ΔF508 CFTR (Homo sapiens, UniProt P13569, DEL508-508); test: Single-channel recording of ΔF508 CFTR Cl- channels in excised patches from C127 cells grown at 28° C.; assay type: biochemical; conditions: 1 μM
T4 construct: expressed in transfected cells
T4 sequence (P13569 with tags, fused parts or gaps DEL508-508): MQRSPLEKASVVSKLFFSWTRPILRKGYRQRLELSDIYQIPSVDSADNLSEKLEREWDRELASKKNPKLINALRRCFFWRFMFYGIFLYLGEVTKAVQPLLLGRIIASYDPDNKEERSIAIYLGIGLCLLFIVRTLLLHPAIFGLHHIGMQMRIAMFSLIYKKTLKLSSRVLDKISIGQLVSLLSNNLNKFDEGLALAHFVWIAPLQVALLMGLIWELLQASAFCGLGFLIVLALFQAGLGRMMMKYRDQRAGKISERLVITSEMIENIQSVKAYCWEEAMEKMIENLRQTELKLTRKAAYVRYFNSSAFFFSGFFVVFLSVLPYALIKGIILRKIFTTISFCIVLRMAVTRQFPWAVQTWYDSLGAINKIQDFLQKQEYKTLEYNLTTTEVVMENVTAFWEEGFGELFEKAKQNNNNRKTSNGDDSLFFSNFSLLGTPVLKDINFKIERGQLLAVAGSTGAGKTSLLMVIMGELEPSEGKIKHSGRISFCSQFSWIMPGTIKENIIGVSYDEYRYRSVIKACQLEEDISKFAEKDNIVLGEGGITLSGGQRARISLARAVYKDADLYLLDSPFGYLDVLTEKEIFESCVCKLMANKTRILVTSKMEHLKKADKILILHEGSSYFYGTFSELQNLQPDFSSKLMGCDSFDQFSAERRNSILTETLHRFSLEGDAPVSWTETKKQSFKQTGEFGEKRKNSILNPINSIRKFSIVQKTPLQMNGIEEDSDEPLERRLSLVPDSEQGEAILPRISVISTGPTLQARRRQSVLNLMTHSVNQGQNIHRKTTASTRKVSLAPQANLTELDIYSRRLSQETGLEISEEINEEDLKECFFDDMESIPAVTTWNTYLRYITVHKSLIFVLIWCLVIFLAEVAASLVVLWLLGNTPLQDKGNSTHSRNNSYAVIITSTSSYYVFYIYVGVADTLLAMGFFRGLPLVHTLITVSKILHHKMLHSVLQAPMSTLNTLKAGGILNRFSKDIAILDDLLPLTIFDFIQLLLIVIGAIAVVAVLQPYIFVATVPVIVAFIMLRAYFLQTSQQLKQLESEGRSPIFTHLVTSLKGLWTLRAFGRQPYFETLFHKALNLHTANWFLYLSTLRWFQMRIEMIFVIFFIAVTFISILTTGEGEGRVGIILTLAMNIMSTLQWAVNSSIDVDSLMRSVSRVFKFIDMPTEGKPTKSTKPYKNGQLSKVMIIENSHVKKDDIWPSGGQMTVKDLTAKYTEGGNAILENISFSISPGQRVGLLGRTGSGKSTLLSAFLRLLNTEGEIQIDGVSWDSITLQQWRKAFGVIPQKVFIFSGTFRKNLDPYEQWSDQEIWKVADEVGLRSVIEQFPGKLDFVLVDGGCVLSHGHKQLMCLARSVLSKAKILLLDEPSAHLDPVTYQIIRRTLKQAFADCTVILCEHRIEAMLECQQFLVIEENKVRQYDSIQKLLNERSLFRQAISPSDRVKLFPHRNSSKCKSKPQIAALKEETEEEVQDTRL

[4] = biological target: wild-type CFTR Cl- channels (Homo sapiens, UniProt P13569); conditions: reported by Wang et al. (18); cited from earlier work
Chain of wild-type CFTR Cl- channels (P13569 whole entry): as the sequence (P13569 whole entry) above

[5] = 1 μM, ATP 0.3 mM, PKA 75 nM, -50 mV
[6] = eosin Y 100 μM, symmetrical 147 mM Cl-, ATP 1 mM

Nc1ncnc2c1ncn2[C@@H]1O[C@H](COP(=O)(O)OP(=O)(O)OP(=O)(O)O)[C@@H](O)[C@H]1O [ATP, reference compound]
EC50 (wild-type human CFTR [1]; PKA-phosphorylated channels, read-out: EC50 for activation of CFTR Cl- channels by intracellular ATP): 300 µM

O=C(O)c1c(Cl)c(Cl)c(Cl)c(Cl)c1-c1c2cc(Br)c(=O)c(Br)c-2oc2c(Br)c(O)c(Br)cc12 [phloxine B]
effect on KATP currents in pancreatic β-cells (KATP currents): inhibits KATP currents | open probability (Po) (wild-type human CFTR [2]; [5]): large increase in Po | single-channel current amplitude (i) (wild-type human CFTR [2]; [5]): small, but significant (P<0.05), reduction | interburst interval (wild-type human CFTR [2]; 1 μM, single active channel): no change; also recorded: without effect | mean burst duration (wild-type human CFTR [2]; 1 μM, single active channel): large increase in the duration of bursts; also recorded: significantly increased | Po in the presence of ADP (wild-type human CFTR [2]; ADP 0.3 mM + phloxine B 1 μM, ATP 0.3 mM, PKA 75 nM): 0.43±0.05 | maximum Po (Pomax), Michaelis-Menten fit (wild-type human CFTR [2]; in the presence of phloxine B 1 μM): 0.72 | effect on iodide efflux in the absence of cAMP agonists ([3]; 10 μM): without effect | effect on cAMP-stimulated iodide efflux ([3]; 10 μM with cAMP agonists): enhanced both the speed and magnitude | interburst interval of ΔF508 (ΔF508 CFTR): without altering | mean burst duration of ΔF508 CFTR Cl channels (ΔF508 CFTR): dramatically prolonging | increase of the Po of ΔF508 (ΔF508 CFTR; ATP 1.0 mM, PKA 75 nM): 1.5 fold | Ki (wild-type human CFTR [1]): 17 µM | reversibility of modulation of CFTR (wild-type human CFTR [1]): partially reversible | effect on CFTR Cl- currents (concentration-response, FIG. 3) (wild-type human CFTR [1]; -50 mV): stimulated and inhibited | n (Hill coefficient) of current inhibition (wild-type human CFTR [1]; -50 mV): 2 | concentrations causing concentration-dependent decrease in CFTR Cl- current (wild-type human CFTR [1]; ATP 0.3 mM, PKA 75 nM, -50 mV): 20 to 50 µM | concentrations that stimulated CFTR Cl- currents (wild-type human CFTR [1]; ATP 0.3 mM, PKA 75 nM, -50 mV): 1 to 5 µM | effect on the activity of CFTR Cl- channels (wild-type human CFTR [1]; added to intracellular solution in the absence of either ATP or PKA): without effect | effect on channel activity at positive voltages (wild-type human CFTR [1]; [6]): relieve channel block by phloxine B (40 μM), but do not stimulate channel activity | concentration that maximally stimulated channel activity (wild-type human CFTR [1]): 5 µM

O=C1OC2(c3ccc(O)cc3Oc3cc(O)ccc32)c2c(Cl)c(Cl)c(Cl)c(Cl)c21 [tetrachlorofluorescein]
effect on CFTR Cl- currents (concentration-response, FIG. 3) (wild-type human CFTR [1]; -50 mV): only inhibited

O=c1c(-c2ccc(O)cc2)coc2cc(O)cc(O)c12 [genistein, 5,7-dihydrox-3-(4-hydroxyphenyl)-4H-1-benzopyran-4-one]
concentration that maximally stimulated wild-type CFTR Cl- channels [4]: 35 µM

O=C1OC2(c3cc(I)c(O)c(I)c3Oc3c2cc(I)c(O)c3I)c2c(Cl)c(Cl)c(Cl)c(Cl)c21 [bengal rose B]
open probability (Po) (wild-type human CFTR [2]; [5]): 0.40±0.08 | effect on CFTR Cl- currents (concentration-response, FIG. 3) (wild-type human CFTR [1]; -50 mV): stimulated and inhibited | concentrations that stimulated CFTR Cl- currents (wild-type human CFTR [1]; ATP 0.3 mM, PKA 75 nM, -50 mV): 0.1 to 1.0 µM | concentration that maximally stimulated channel activity (wild-type human CFTR [1]): 1 µM

O=C1OC2(c3ccccc31)c1cc(Br)c(O)c(Br)c1Oc1c2cc(Br)c(O)c1Br [eosin Y]
open probability (Po) (wild-type human CFTR [2]; [5]): 0.43±0.02 | effect on CFTR Cl- currents (concentration-response, FIG. 3) (wild-type human CFTR [1]; -50 mV): stimulated and inhibited | effect on channel activity at positive voltages (wild-type human CFTR [1]; [6]): channel activity is stimulated | effect on channel activity at negative voltages (wild-type human CFTR [1]; [6]): inhibits channel activity

Nc1ncnc2c1ncn2[C@@H]1O[C@H](COP(=O)(O)OP(=O)(O)O)[C@@H](O)[C@H]1O [ADP, reference compound]
Po (wild-type human CFTR [2]; ADP 0.3 mM alone, ATP 0.3 mM, PKA 75 nM): 0.21±0.02 | Po as % of the control value (wild-type human CFTR [2]; ADP 0.3 mM, ATP 0.3 mM, PKA 75 nM): 49±1%

O=C1OC2(c3ccc(O)cc3Oc3cc(O)ccc32)c2ccccc21 [fluorescein]
effect on CFTR Cl- currents (concentration-response, FIG. 3) (wild-type human CFTR [1]; -50 mV): only inhibited
